How the values were obtained:
[1] = cited from earlier work
[2] = Cortisol transport through hydrophobic barrier (track-etch membrane with castor oil) to electrochemical aptamer sensor, FIG. 6B; settings: sensor solution hundreds of micrometers thick; track-etch membrane of 10% porosity filled with castor oil

| SMILES | Solubility in Water (in words) [1] | concentration lag time (time for sensor solution to reach 90% of sample solution concentration) [2] [min] |
| --- | --- | --- |
| CCCCC/C=C\C/C=C\C/C=C\C/C=C\CCCC(=O)O [Arachidonic Acid] | Negligible |  |
| CCCCCC/C=C\CCCCCCCC(=O)O [Palmitoleic Acid] | Low |  |
| C[C@]12CCC(=O)C=C1CC[C@@H]1[C@@H]2[C@@H](O)C[C@@]2(C)[C@H]1CC[C@]2(O)C(=O)CO [cortisol] |  | ~30 |

Source: patent US12259352B2, “Membrane enhanced sensors” (University Of Cincinnati, priority 2018, dated 2025)
